Results as given in patent US6572839B2, “Sensitizer for tumor treatment” (Hitachi, Ltd., priority 2000, dated 2003).
In brackets after ≈: the same amount, converted by molar mass. Like-named read-outs stand apart in the source and are kept apart here.

Columns and labels:
[1] = Evaluation of the acoustic cavitation promoting effect (subharmonic signal upon ultrasound irradiation); conditions: 0.5 MHz and 1 MHz; for subharmonic generation: 0.1 mmol/L in PBS (pH 7.4), acoustic intensity 5 W/cm^2, 1 minute
Procedure: A 0.1 mmol/L solution of RB—Cn in PBS (pH 7.4, containing 1% DMF) was sealed in a polyethylene bag (30×25 mm, 0.03 mm thick) and irradiated with ultrasonic waves of 0.5 MHz and 1 MHZ simultaneously under conditions of an acoustic intensity of 5 or 10 W/cm^2 and an exposure time of 1 minute, using an experimental apparatus having the constitution shown in FIG. 4.
In FIG. 4, 10 indicates degassed water, 11—a water tank, 12—a polyethylene bag, 13—a sample solution, 14-1 and 14-2 each—a holdfast, 15—a hanger, 16—a hydrophone, 17—a supporter, 18—an ultrasound transducer, 19—a supporter, 20—a signal processor, 21—an amplifier, 22—a spectrum analyzer, 23—an amplifier, and 24—a wave generator.
The acoustic signals at the subharmonic (250 kHz) characteristic to acoustic cavitation were measured at one-second intervals using a focusing type hydrophone, the root mean square of the signal amplitudes during the irradiation period was calculated and this was used as an indication of acoustic cavitation.
For comparison, a 0.1 mmol/L solution of RB in PBS (pH 7.4) was also measured for subharmonic signals. […] For each of RB and the RB—Cn species containing 3, 6 or 18 carbon atoms in the alkyl group (RB—C3, RB—C6 and RB—C18), the relation between acoustic intensity and subharmonic intensity is shown in FIG. 6.
Using a 0.1 mmol/L solution of RB—COOH—Cn in PBS (pH 7.4), the acoustic cavitation promoting effect was evaluated in the same manner as in Test Example 5.
Using a 0.1 mmol/L solution of xanthene dye sensitizer—COOH—Cn in PBS (pH 7.4), the acoustic cavitation promoting effect was evaluated in the same manner as in Test Example 5.

[2] = Solubility measurement of RB and lipophilic derivatives of RB in PBS and 1-octanol; format: physicochemical; conditions: for solubility: thermodynamic from solid
Procedure: The sonochemical sensitizers of the invention, namely RB—COOH—Cn species (n being the number of carbon atoms in the straight alkyl group) were examined for their solubility in an aqueous solution and in an organic solvent. The aqueous solution used was a phosphate buffer solution (hereinafter, PBS) with a pH of 7.4 and the organic solvent used was 1-octanol.
First, saturated solutions of each RB—COOH—Cn in PBS and in 1-octanol were prepared at 25° C. and each solution was measured for its ultraviolet-visible absorption spectrum. Based on the molar absorptivity determined beforehand by measuring the ultraviolet-visible absorption spectrum of a solution having a known concentration, the agent concentration in the saturated solution was estimated.
For comparison, the starting material RB and two kinds of RB derivative, for which an attempt was made to increase the lipophilicity by a method other than that of the invention, namely rose bengal alkyl esters (hereinafter, RB—Cn, n being the number of carbon atoms in the alkyl group) and rose bengal fatty acid esters (hereinafter, RB—Cn—COOH, n being the number of carbon atoms in the methylene chain), were also subjected to solubility measurement.
In the solubility measurement, the respective derivatives having an equal number of carbon atoms in the alkyl group (n=7) were used.

[3] = Preparation of RB solution and RB lipophilic derivative solutions for administration in vivo; format: physicochemical; conditions: target 10 mg/mL (RB—Cn 1 mg/mL), final pH about 7.4
Procedure: A solution each of RB (Formula 9), RB—Cn—COOH (Formula 11) and RB—COOH—Cn (Formula 12) with a concentration of 10 mg/mL and a solution of RB—Cn (Formula 10) with a concentration of 1 mg/mL were prepared.
RB: 50 mg of RB was dissolved in PBS (pH 7.4) and the whole volume was made 5 mL.
RB—Cn: 4 mg of RB—Cn was dissolved in 0.4 mL of DMSO. Then, 0.4 mL of ethanol, 0.3 mL of 0.1 N NaOH aqueous solution and 1.0 mL of PBS (pH 7.4) were added and, further, 0.1 N hydrochloric acid was added to adjust the pH to about 7.4 and the whole volume was made 4 mL by further adding PBS (pH 7.4). The DMSO accounted for 10% of the whole solution.
RB—C7—COOH: 30 mg of RB—C7—COOH was dissolved in 1.2 mL of 0.1 N NaOH aqueous solution, 0.1 N hydrochloric acid was added to adjust the pH to about 7.4 and the whole volume was made 3 mL by further adding PBS (pH 7.4).
RB—COOH—Cn: n=2 to 10:30 mg of each RB—COOH—Cn was dissolved in 1.2 mL of 0.1 N NaOH aqueous solution, 0.1 N hydrochloric acid was added to adjust the pH to about 7.4 and the whole volume was made 3 mL by further adding PBS (pH 7.4). […].
n=11 to 20:30 mg of each RB—COOH—Cn was dissolved in 0.6 mL of DMF. Then, 1.2 mL of 0.1 N NaOH aqueous solution was added, 0.1 N hydrochloric acid was added to adjust the pH to about 7.4 and the whole volume was made 3 mL by further adding PBS (pH 7.4).

[4] = tested on: murine experimental tumor Colone 26; assay: Evaluation of the accumulation of RB—Cn in tumor tissues (agent extracted, fluorescence); format: in vivo; conditions: tumor bearing CDF1 mice, intravenous, 10 mg/kg, until 120 minutes after administration, FIG. 2
Procedure: (§1) Tumor bearing mice were intravenously administered with RB or RB—Cn and, after the lapse of a predetermined period, tumor tissues were excised. The fluorescence spectrum of the agent extracted from the tumor tissues was measured and the concentration of the agent was estimated from the fluorescence intensity to thereby evaluate the accumulability in tumor tissues. Mice subjected to the test were 5-week male CDF1 mice one to two weeks after subcutaneous implantation of small pieces (e.g. 1 mm^3 pieces) of the murine experimental tumor Colone 26. The dose of the agent was 10 mg/kg and methanol or chloroform was used for the extraction.

[5] = tested on: murine experimental tumor Colone 26; assay: Evaluation of the accumulation of RB—COOH—Cn in tumor tissues (fluorescence intensity ratio); format: in vivo; conditions: tumor bearing CDF1 mice, intravenous, 10 mg/kg, until 120 minutes after administration, FIG. 3
Procedure: as §1
Tumor bearing mice were intravenously administered with RB or RB—COOH—Cn and, after the lapse of a predetermined period, tumor tissues were excised. The fluorescence intensity of the tumor tissues was measured and the accumulability in tumor tissues was evaluated based on the ratio of that intensity and the fluorescence intensity of an internal standard (fluorescence intensity ratio). The mice used in the test and the dose of the agent were the same as in Test Example 3. As an example of the results, the relation between the time from agent administration to mice to tumor tissue excision and the fluorescence intensity ratio is shown in FIG. 3 for each of RB and RB—COOH—Cn species containing 2, 3, 7 or 15 carbon atoms in the alkyl group (RB—COOH—C2, RB—COOH—C3, RB—COOH—C7 and RB—COOH—C15).

[6] = Evaluation of the photosensitivity (photo-oxidation reaction of iodide); conditions: light of 365 nm, DMF solution, FIG. 9 / FIG. 10
Procedure: The photo-oxidation reaction of iodide as represented by Equation 4 was carried out in the presence of RB—Cn and the photosensitivity of the compound was evaluated.
A mixed solution composed of 2 mL of a 0.1 mol/L solution of potassium iodide in DMF and 1 mL of a 1 mmol/L solution of RB—Cn in DMF was placed in a glass dish (48 mm in diameter) and irradiated with light of 365 nm for a predetermined period. The absorbance, at 350 nm, of the sample was measured before and after exposure. 350 nm is the absorption maximum wavelength of I3^—. Based on the absorbance (A), the concentration of I3^— was calculated using Equation 5.
The procedure of Test Example 8 was followed in the presence of RB—COOH—Cn.

[7] = Evaluation for bubble stability; format: physicochemical; conditions: 0.1 mmol/L in PBS (pH 7.4), 4 mL shaken 5 minutes
Procedure: Using a 0.1 mmol/L solution of RB—COOH—C7 in PBS (pH 7.4), the stability of bubbles was measured. 4 mL of the solution of RB—COOH—C7 was placed in a test tube having a length of […] and shaken on a shaker for 5 minutes and then the time until the disappearance of the bubbles was measured. PBS was used as a control.

[8] = Evaluation for contrast-enhancing effect (ultrasound imaging); format: in vivo; conditions: dog, 5 mL of 0.1 mmol/L solution intravenously, 5 MHz linear probe, mode B
Procedure: Using an ultrasound diagnostic system equipped with a linear probe with a central frequency of 5 MHz, 5 mL of the solution of RB—COOH—C7 obtained in Test Example 10 was intravenously administered to a dog (weighing 12 kg, 2 years old) while ultrasonically scanning the hepatic region of the dog with mode B. Immediately thereafter, 5 mL of physiological saline was administered. After administration, the hepatic artery and aorta were imaged and the imaging lasted for about 30 seconds.

Compound | subharmonic generation [1] | occurrence/concentration in tumor tissues (fluorescence intensity ratio to internal standard) [5] | relation between light exposure time and yield in photo-oxidation of iodide [6] | other results
CCCCCCC(OC(=O)c1ccccc1-c1c2cc(I)c(=O)c(I)c-2oc2c(I)c(O)c(I)cc12)C(=O)O (stereo not drawn) [EB—COOH—C7, Erythrosine B-α-carboxyheptyl ester] | observed |  |  | 
O=C([O-])c1c(Cl)c(Cl)c(Cl)c(Cl)c1-c1c2cc(Br)c(=O)c(Br)c-2oc2c(Br)c([O-])c(Br)cc12.[Na+].[Na+] [PB, phloxine B sodium salt] | observed |  |  | 
O=C(O)CCCCCCCOC(=O)c1c(Cl)c(Cl)c(Cl)c(Cl)c1-c1c2cc(Br)c(=O)c(Br)c-2oc2c(Br)c(O)c(Br)cc12 [PB—COOH—C7, Phloxine B-α-carboxyheptyl ester] | observed |  |  | 
O=C([O-])c1c(Cl)c(Cl)c(Cl)c(Cl)c1-c1c2cc(I)c(=O)c(I)c-2oc2c(I)c([O-])c(I)cc12.[Na+].[Na+] [RB, rose bengal sodium salt] | observed | hardly observed | almost proportional to the exposure time | solubility ([2]; 1-octanol, organic solvent or mixture, saturated solution at 25° C., organic solvent, read-out: solubility in 1-octanol): < 0.1 mM; solubility ([2]; phosphate buffer solution (PBS), pH 7.4, aqueous buffer, saturated solution at 25° C., aqueous solution, read-out: solubility in PBS (pH 7.4)): 220 mM; solubility in 1-octanol ([2]; saturated solution at 25° C., organic solvent, sodium salt): <0.1 mM; dissolution behaviour when preparing solution for administration in vivo [3]: soluble as it was in PBS (pH 7.4); agent concentration in tumor tissues [4]: hardly observed
CCCCCCOC(=O)c1c(Cl)c(Cl)c(Cl)c(Cl)c1-c1c2cc(I)c(=O)c(I)c-2oc2c(I)c(O)c(I)cc12 [RB—C6] | observed |  | almost proportional to the exposure time | agent concentration in tumor tissues [4]: higher as compared with RB
CCCCCCCCCCCCCCCCCCOC(=O)c1c(Cl)c(Cl)c(Cl)c(Cl)c1-c1c2cc(I)c(=O)c(I)c-2oc2c(I)c(O)c(I)cc12 [RB—C18] |  |  | almost proportional to the exposure time | agent concentration in tumor tissues [4]: higher as compared with RB; subharmonic formation ([1]; 0.1 mmol/L in PBS (pH 7.4, 1% DMF), ultrasound intensity 10 W/cm^2, 1 minute): no subharmonic formation was observed
CCCCCCCCCCOC(=O)c1c(Cl)c(Cl)c(Cl)c(Cl)c1-c1c2cc(I)c(=O)c(I)c-2oc2c(I)c(O)c(I)cc12 [RB—CLO] |  |  | almost proportional to the exposure time | 
O=C(O)CCCCCCCOC(=O)c1c(Cl)c(Cl)c(Cl)c(Cl)c1-c1c2cc(I)c(=O)c(I)c-2oc2c(I)c(O)c(I)cc12 [RB—COOH—C7, Rose bengal-α-carboxyheptyl ester] | observed | higher than that of RB | almost proportional to the exposure time | solubility in the organic solvent relative to that of RB—C7—COOH ([2]; 1-octanol): about 5 times; solubility in 1-octanol (organic solvent) relative to the solubility of RB ([2]; 25° C.): 120 times; solubility in the aqueous solution relative to that of RB—C7 ([2]; PBS (pH 7.4), 25° C.): 83 times; solubility in PBS (pH 7.4) ([2]; saturated solution at 25° C., aqueous solution): 0.83 mmol/l; solubility in 1-octanol ([2]; saturated solution at 25° C., organic solvent): 12 mM (≈ 13.4 mg/mL); time bubbles remain after shaking [7]: about 120 seconds; duration of imaging of hepatic artery and aorta [8]: about 30 seconds
CCCCCCCCCCCCCCOC(=O)c1c(Cl)c(Cl)c(Cl)c(Cl)c1-c1c2cc(I)c(=O)c(I)c-2oc2c(I)c(O)c(I)cc12 [RB—Cl4] |  |  | almost proportional to the exposure time | 
Rose bengal-α-carboxyethyl ester [RB—COOH—C2] |  | hardly observed | almost proportional to the exposure time | 
Rose bengal-α-carboxypentadecyl ester [RB—COOH—C15] | observed | higher than that of RB | almost proportional to the exposure time | 
erythrosine B sodium salt [EB] | observed |  |  | 
